Assay results reported in patent US20150005253A1, “NOVEL COMBINATIONS FOR TREATING ACUTE MYELOID LEUKAEMIA OR CHRONIC MYELOID LEUKAEMIA” (SANOFI, priority 2012, published 2015).
Where two headings read alike, the source gives them in different places.

Tests used:
KG1a cells = experiment: Tumor implantation study in SCID mice bearing KG1a cells; assay type: in vivo; settings: for ΔT/ΔC: evaluated on day 32; for cures: day 120
Procedure: (§1) For in vitro studies, compound (A) was dissolved at 10 mM in DMSO and diluted in complete RPMI-1640 medium or in phenol red-free complete RPMI-1640 medium in sterile 96-well polystyrene cell culture plates. For in vivo studies, compound (A) was prepared for intravenous (IV) or intraperitoneal (IP) administration by mixing 22% PEG400 with 5% solutol and 73% […]. For oral administration, compound (A), was prepared in a generally regarded as safe (GRAS) formulation composed of 21% labrasol with 5% solutol and 74% HCL 0.001N. Solutions were kept on ice and administered as a bolus within 1 hour after formulation preparation. The volume of injection was 0.2 mL per mouse.
(§2) Eight-week-old female SCID mice were purchased from Charles River. The Committee of Animal Studies at Sanofi approved the protocol for animal experimentation. This protocol and all laboratory procedures comply with the French Legislation, which implements the European Directives. Animals were received at least one week before the experiment to allow acclimatization. The animals were kept under a natural daylight cycle and given food and water ad libitum.
All tumor cell lines were obtained from DSMZ GmbH. Initially, cell lines were cultured in RPMI 1640 containing 10% FCS and antibiotics, and implanted subcutaneously in SCID mice (10^7 cells/mouse). When the tumor reached approximately 1000 mg, it was removed from the donor mouse, cut into fragments (2-3 mm diameter), placed in a phosphate buffer saline, and implanted bilaterally with a 12-gauge trocar. Tumor fragments were propagated until stable growth behavior occurred (a stable doubling time), before using in experiments. Distribution was performed using body weight and tumor weight criteria with the “Newlab oncology” software (Newlab).
(§3) When ΔT/ΔC values are negative, the percentage of regression is evaluated. Partial regression (PR) is defined as a decrease ≧50% of tumor volume at treatment initiation. Complete regression (CR) is defined as a decrease in tumor volume below the limit of palpation (T=10 mm^3). At study end, the number of tumor-free survivors (TFS), which correspond to mice without any detectable tumor, was determined. Both drug-related deaths and maximum percent relative mean net body weight loss were also determined. Median times to reach tumor target size were compared using Log-Rank or Kruskal-Wallis multiple comparisons tests. A body weight loss nadir (mean of group)>20% or 10% drug-related deaths were considered to indicate an excessive toxic dosage.

[1] = test system: granulomonocytic progenitors (CFU-GM); experiment: Normal myeloid progenitor cell clonogenic assay (CFU-GM); assay type: cell-based; settings: Homo sapiens, 336 h, median over normal myeloid progenitor samples, 14 days
Procedure: as §1
(§4) Fresh CD34^+ human bone marrow cells were washed twice in Iscove modified Dulbecco medium (IMDM) containing 10% FCS and resuspended in H4230 medium supplemented with 10% 5637-conditioned medium for CFU-GM growth, in H4435 medium for CFU-M growth, and in H4535 medium for BFU-E growth. H4230, H4435, and H4535 medium were purchased from Stem Cell Technologies. The cells were then plated in 35-mm Petri dishes and incubated in a humidified CO2 incubator (5% CO2, 37° C.) for 14 days. Colonies (>50 cells) were then scored under an inverted microscope.

[2] = test system: erythroblastic BFU-E progenitors; experiment: Normal myeloid progenitor cell clonogenic assay (BFU-E); assay type: cell-based; settings: Homo sapiens, 336 h, median over normal myeloid progenitor samples, 14 days
Procedure: as §1, §4

CML-T1 = experiment: Human chronic leukaemia CML-T1 implanted in SCID mice; assay type: in vivo; settings: Cytarabine 200 mg/kg IP days 8, 12, 16; COMPOUND (A) 10 mg/kg IP days 8, 9, 11-17, 19; alone or combined
Procedure: Food and water were given ad libitum.
(§5) where T is the median time (in days) required for the treatment group tumors to reach a predetermined size (eg, 1000 mg), and C is the median time tumors to reach the same size (in days) for the vehicle group of each schedule. Tumor-free survivors are excluded from these calculations (cures are tabulated separately). T-C is the tumor growth delay and Td is the tumor doubling time in days. […] LCK-g values can be translated into an activity rating, according to the Southern Research Institute (SRI) criteria: […]

[3] = test system: leukemia progenitors (CFU-L) of AML patient samples; experiment: Myeloid leukemic cell clonogenic assay on AML patient samples (ex vivo); assay type: cell-based, human; settings: for IC50: Homo sapiens
Procedure: Hematological malignant cell lines were obtained from Deutsche Sammlung von Mikroorganismen and Zellkulturen GmbH (Braunschweig) and cultured in complete RPMI-1640 medium containing 10% fetal bovine serum and antibiotics. Primary AML cells were obtained from patients seen at Toulouse Hospital (Toulouse, France) at the time of diagnosis and after written informed consent. All samples were evaluated for karyotypic abnormalities, immunologic phenotype, FLT3-acquired activating mutations (internal tandem duplications and kinase domain mutations), t (Mizuki M. et al., Blood 2000 96: 3907-3914; Fiebig H. H. et al., Eur. J. Cancer 2004, 40: 802-820) and inv (Bonnet D. et al., Nat Med 1997 3: 730-737) mutations, and c-kit receptor-acquired mutations. Samples were stored in the Hemopathies Inserm Midi-Pyrénées (HIMIP) collection. Mononuclear cells were separated through a Ficoll-Hypaque density gradient.
as §1
The assay is as described by Récher and colleagues (Récher C. et al., Blood 2005; 105:2527-2534) with slight modifications. Briefly, cells were washed twice in PBS and suspended at 1×10^5 cell/mL in H4230 medium (Stem Cell Technologies) supplemented with 10% 5637-conditioned medium and appropriate dilutions of COMPOUND (A). Cells were then plated on 35 mm petri dishes and incubated at 37° C. in 5% CO2, fully humidified atmosphere. After 7 days, colonies (more than 20 cells) and clusters (more than 5 cells) were scored using an inverted microscope.

KG1 cells = experiment: in vivo; assay type: in vivo; settings: for CR / cures / log cell kill-gross (LCK-g): Compound (A) 20 mg/kg IV days 16-20, alone or combined; for tumor response, oral consolidation: after IV induction
Procedure: (§6) Solutions were kept on ice and administered as a bolus within 1 hour after formulation preparation. The volume of injection was 0.2 mL per mouse.
as §2
(§7) When the tumor reached approximately 1000 mg, it was removed from the donor mouse, cut into fragments (2-3 mm diameter), placed in a phosphate buffer saline, and implanted bilaterally with a 12-gauge trocar. Tumor fragments were propagated until stable growth behavior occurred (a stable doubling time), before using in experiments. Distribution was performed using body weight and tumor weight criteria with the “Newlab oncology” software (Newlab).
as §3, §5

in vivo = assay type: in vivo; settings: female, SCID, mouse, in vivo; daily IV
Procedure: as §6, §2, §7, §3, §5

[4] = Cytarabine 31.5 mg/kg IP days 16-22
[5] = very advanced KG1 tumors (1000 mg), 25 mg/kg IV daily day 22-30

With CC(C)(C)NC(=O)Nc1nc2nc(Nc3ccc4nsnc4c3)ncc2cc1-c1c(Cl)cccc1Cl [Compound (A), N-[2-(2,1,3-benzothiadiazol-5-ylamino)-6-(2,6-dichlorophenyl)pyrido[2,3-d]pyrimidin-7-yl]-N′-(1,1-dimethylethyl)-urea] the activity rating (KG1a cells; 10 mg/kg) was “highly active (ΔT/ΔC<0: highly active)”, the “animals with complete regression” value (KG1a cells; 10 mg/kg) was 10/10 and the ΔT/ΔC (KG1a cells; 10 mg/kg daily IV day 5-13 then IP to day 31) was −4.99%. The cures (KG1a cells; 10 mg/kg) was 80%, the activity rating (KG1a cells; 17 mg/kg) was “highly active (ΔT/ΔC<0: highly active)” and the “animals with complete regression” value (KG1a cells; 17 mg/kg) was 10/10. For the same compound, the ΔT/ΔC (KG1a cells; 17 mg/kg daily IV day 5-13 then IP to day 31) was −4.70%, the “body weight loss at nadir” value (KG1a cells; 17 mg/kg daily IV day 5-13 then IP, day 22, reversible) was 16.2% and the cures (KG1a cells; 17 mg/kg) was 60%. The IC50 [1] was 788 nM, the IC50 [2] was 219 nM and the LCK-g (CML-T1) was 0.1. For the same compound, the IC50 ([3]; range over AML patient samples, read-out: IC50 values ranging (all tested samples)) was at least 3.8 nM, the IC50 ([3]; resistant, N=4 samples, read-out: IC50 maximum, resistant samples) was over 1000 nM and the IC50 ([3]; resistant, N=4 samples, read-out: IC50 minimum, resistant samples) was 888 nM. For the same compound, the IC50 ([3]; sensitive, N=26, read-out: IC50 maximum, sensitive samples) was 532 nM, the IC50 ([3]; sensitive, N=26, read-out: IC50 median, sensitive samples) was 172 nM and the IC50 ([3]; sensitive, N=26, read-out: IC50 minimum, sensitive samples) was 3.8 nM. The “sensitive samples as share of the tested samples” value ([3]; classified against activity on normal hematopoietic progenitors) was 86.7%, the “AML cell samples displaying resistance in the high-risk cytogenetic group” value ([3]; high-risk group: patients 4, 11, 14, 19, 21, 23, 25, 27, 28, 29) was 3 and the “sensitivity of patient sample 11” value ([3]; patient sample 11) was “highly sensitive”. The activity rating (KG1 cells; 10 mg/kg IV) was “active”, the “animals with CR” value (KG1 cells; 10 mg/kg/day IV) was “one of six” and the ΔT/ΔC (KG1 cells; 10 mg/kg/day IV, day 19 to day 38) was 17.45%. For the same compound, the activity rating (KG1 cells; 25 mg/kg IV) was “highly active (ΔT/ΔC<0: highly active)”, the “animals with complete regressions (CR)” value (KG1 cells; 25 mg/kg/day IV (MTD)) was 6 out of 6 and the animals with cures (KG1 cells; 25 mg/kg/day IV (MTD)) was 6 out of 6. For the same compound, the DT/DC (KG1 cells; 25 mg/kg/day IV, day 19 to day 38) was under −14.27%, the body weight loss (KG1 cells; 25 mg/kg/day IV, day 29, reversible) was 18.2% and the CR (KG1 cells; [4]) was 83%. The cures (KG1 cells; [4]) was “no”, the “log cell kill-gross (LCK-g)” value (KG1 cells; [4]) was 2.4 and the “tumor response, oral consolidation” value (KG1 cells; oral 1x50 mg/kg daily day 31-95) was “tumors re-grew slowly”. For the same compound, the “tumor response, oral consolidation” value (KG1 cells; oral 2x40 mg/kg daily day 31-95) was “complete disappearance of tumors”, the animals cured (KG1 cells; oral 2x40 mg/kg/day) was “None” and the “maximum body weight loss” value (KG1 cells; oral 2x40 mg/kg/day, day 28, rapidly reversible) was 14.4%. For the same compound, the “efficacy (in words)” value (KG1 cells; oral once a day 19.8 mg/kg) was “no efficacy”, the ΔT/ΔC (KG1 cells; oral once a day 19.8 mg/kg) was 41.99% and the DT/DC (KG1 cells; oral once a day 31.5 mg/kg) was 19.72%. For the same compound, the DT/DC (KG1 cells; oral once a day 50 mg/kg) was 7.61%, the ΔT/ΔC (KG1 cells; oral, two daily dosages of 40 mg/kg/day, day 15 to day 40) was −3.80% and the “activity rating, IV induction phase” value (KG1 cells; [5]) was “highly active (ΔT/ΔC<0: highly active)”. The “tumor response, IV induction phase” value (KG1 cells; [5]) was “strong tumor regressions” and the MTD (in vivo) was 25 mg/kg.

In the case of Nc1ccn([C@@H]2O[C@H](CO)[C@@H](O)[C@@H]2O)c(=O)n1 [Cytarabine, cytarabine, reference compound], the LCK-g (CML-T1) is reported as 0.9, the CR (KG1 cells; [4]) is reported as “no” and the cures (KG1 cells; [4]) is reported as “no”. For the same compound, the “log cell kill-gross (LCK-g)” value (KG1 cells; [4]) was 1.6 and the PR (KG1 cells; [4]) was “no”.
